Source: paper PMC5532363, “Synergistic blending of high-valued heterocycles inhibits growth of Plasmodium falciparum in culture and P. berghei infection in mouse model” (Scientific Reports, 2017)
Read-outs that look alike come from different tables or passages of the source.

Tests used:
[1] = system: P. falciparum 3D7 (Pf3D7), CQ sensitive; assay: SYBR Green I growth inhibition assay, asynchronous P. falciparum 3D7 culture; type: cell-based, Plasmodium falciparum; conditions: for IC50 (SE) µM / IC50 (SE) µg/mL: Pf3D7, asynchronous culture; for IC50: Plasmodium falciparum
Description: Antimalarial activity of all the listed Pht analogues was initially assessed on asynchronous cultures of P. falciparum 3D7 (Pf3D7) clone using the SYBR Green assay. […] The mean IC50 values are based on three separate experiments (Table 1).
The laboratory-adapted P. falciparum strains 3D7 (Africa; CQ sensitive) and W2 (Africa; CQ resistant), were acquired from Malaria Research and Reference Reagent Resource Center (MR4) (Manassas, VA, USA) and maintained with type O +ve erythrocytes suspended in continuous complete culture medium as described. Complete culture media consisted of 10.43 g/litre of RPMI 1640-HEPES supplemented with 10% (vol/vol) human AB serum, 92.6 mg/litre L-glutamine, 50 mg/liter hypoxanthine, 2 g/litre sodium bicarbonate (Sigma-Aldrich, St. Louis, MO). Incubation of cultures was at 37 °C and maintained in a low oxygen atmosphere (5% O2, 5% CO2, 90% N). The levels of parasitemia in the cultures were maintained at between 2 and 10%, with 5% hematocrit. Media was changed after every 24 hours and parasitemia monitored every 48 hours. Synchronous cultures were prepared by sorbitol lysis. Stock solutions of the Pht, Pht analogues, and DHA were prepared in absolute dimethyl sulfoxide (DMSO) while CQ was prepared in distilled water. The prepared drug stock solutions were used immediately or stored at −80 °C for not longer than one month before use. Stock solutions were further diluted in serum free RPMI 1640 media (stock solution solvent final conc. 0.05%) before performing a 2-fold serial dilution to achieve dose ranges of 0.2 µM to 100 µM (Pht and derivatives), 7.8 to 2,000 nM (CQ) and 0.17 to 87.5 nM (DHA). 25 μL of the drug diluents were aliquoted into 96 well plates and used immediately. Alternatively, the stock solutions were diluted in distilled water, 2-fold serial dilution performed on a 96 well plate and allowed to air dry in a laminar flow hood after which dried plates were stored at 4 °C until use. SYBR Green I assay technique with additional modification was used for drug susceptibility testing of the parasites. Parasite cultures of >1% parasitemia were diluted to 1% parasitemia and 2% hematocrit and 200 μL were transferred onto drug pre-dosed plates and incubated at 37 °C for 90 hours, [40]. Drug exposure was terminated by freezing the drug plates at −80 °C for 24 hours after which lysis buffer containing (per liter) 100 mM Tris-HCl, 10 mM EDTA, 0.016% Saponin, 1.6% triton X-100 and 20X SYBR Green I dye was added and the sample incubated for 2 hours in the dark. Relative fluorescence units (RFU) were read using the Perkin Elmer Wallac 1420 fluorescence plate reader, with excitation and emission wavelengths of 485 nm and 535 nm respectively. The readouts values were aligned with corresponding drug doses and analysis performed by Graph-pad Prism software. The drug concentrations (x value) were transformed using X = Log[X] and plotted against the counts (y values) and the data analysed by non-linear regression (sigmoid dose-response/variable slope equation) to yield the IC50.

P. berghei NK65 = assay: Modified Peter's 4-day suppressive test in P. berghei NK65 infected Swiss albino mice; type: in vivo, Plasmodium berghei; conditions: 6h/6u 50 mg/kg, artemisinin 5 mg/kg, s.c. for four consecutive days, n = 6/group
Experimental: The antimalarial effect of two active analogues, 6h and 6u (administered at 50 mg/kg of body weight), was determined in mice infected with P. berghei NK65, a strain, which results in high levels of blood-stage parasitemia. […] However, the 6u analogue had better antimalarial efficacy than the 6h analogue (Fig. 6A). As such, we then evaluated the efficacy of 6u (50 mg/kg) in combination with artemisinin (5 mg/kg of body weight) at reduced dosage in the murine malaria model. […] The median survival times of animals treated with Pht 6u alone, as well in combination with ART were 23 and 27.5 days, respectively (P<0.001).
Figure 6 Antimalarial effect of Pht analogs (6h and 6u) alone and in combination with Artemisinin (6u and ART) on parasitemia and survival in mice infected with P. berghei NK65. Mice were injected with 1 × 10^7 P. berghei infected RBCs. After 48 hours mice were treated with control (PBS: untreated), 6h and 6u (alone), and 6u in combination with artemisinin (all injected subcutaneously) for four consecutive days. The % of parasitemia was determined for the groups on days 5, 8 and 15 by randomly selecting 10 different optical fields on blood smears. (A) Administration of 6h and 6u (alone), and 6 u in combination with ART. Data are the mean ± SEM from six animals per treatment group. (B) Survival in the treatment groups (n = 6/group). (C) Photomicrograph of blood smears of untreated versus treatment groups at day 15 post infection (100x magnification). ART, Artemisinin; *P < 0.05. TEXT PRINTED IN THE PICTURE: (B) Phthalimide 6h: MST- 19.5 | (B) Phthalimide 6u: MST- 23 | (B) Artemisinin: MST- 21.5 | (B) Phthalimide 6u+Artemisinin: MST- 27.5
All animal experiments were performed in female Swiss albino mice (4 to 5 weeks old, weighing 25 to 30 g). The animals were housed under standard controlled conditions at 25 °C with a 12-h light-dark cycle and access to sterilized food pellets and water. All experiments were carried out in accordance with the standard procedures approved by the Animal Ethics Committee of the University of Delhi South Campus, under the Control and Supervision of Experiments on Animals (CPCSEA), Ministry of Social Justice and Empowerment, Government of India. […] The antimalarial activity was carried out in accordance with a slightly modified version of the Peter’s 4-day suppressive test[43]. The animals were assigned to each group (n = 6). Subsequently, after 48 hour of postinfection, the parasitemia level reached 1 to 2%, and all the groups of mice were treated by subcutaneous (s.c.) injection with compounds 6h and 6u alone as well in combination with artemisinin solubilized in DMSO. One group was kept as a control and treated with physiological saline. The efficacy of the treatment was monitored by measuring the parasitemia and survival on days 5, 8 and 15 posttreatments by obtaining thin smears of blood withdrawn from the tail vein of infected mice and staining with 10% Giemsa. The level of parasitemia was determined by counting infected and noninfected erythrocytes from 10 to 15 randomly selected optical fields at 100x magnification and expressed as the number of infected erythrocytes per 100 erythrocytes. The survival of mice was recorded and observed for external symptoms, such as change in body weight, ruffled fur, lethargy and paralysis, until 30 or 40 days posttreatment. The reduction in the level of parasitemia was taken as the index for the curative activities of the drugs. The percentage of parasitemia was calculated manually with the Cell Counting Aid software[44] using the formula (total no. of parasitized RBCs)/(total no. of RBCs) × 100.
For in-vivo experiments, statistical differences between two groups were determined by Student’s t test and between multiple groups using one-way analysis of variance (ANOVA), with P values of <0.05, by GraphPad Prism (version 5.01; GraphPad Software, Inc., CA). […]

[2] = SYBR Green, mean of three experiments, NDR / No IC50 = no dose response
[3] = 3D7, Pf3D7, asynchronous culture, SYBR Green, mean of three experiments, NDR / No IC50 = no dose response, read-out: IC50 (SE) µM
[4] = 3D7, Pf3D7, asynchronous culture, SYBR Green, mean of three experiments, NDR / No IC50 = no dose response, read-out: IC50 (SE) µg/mL

IC50 (SE) µM [1, 2] | IC50 (SE) µg/mL [1, 2] | IC50 [1, 3] [µM] | IC50 [1, 4] [µg/mL] | melting point [°C] | SMILES | further results
NDR | NDR | – | – | – | CC(C)C[C@H](c1nc2ccccc2n1Cc1cn(-c2ccc(Cl)cc2)nn1)N1C(=O)c2ccccc2C1=O [Compound 6b] | –
– | – | 17.3 | 8.8 | – | CC(C)C[C@H](c1nc2ccccc2n1Cc1cn(-c2ccc(F)cc2)nn1)N1C(=O)c2ccccc2C1=O [Compound 6c] | –
NDR | NDR | – | – | – | COc1ccc(-n2cc(Cn3c([C@@H](CC(C)C)N4C(=O)c5ccccc5C4=O)nc4ccccc43)nn2)cc1 [Compound 6d] | –
– | – | 25 | 13 | – | Cc1ccc(-n2cc(Cn3c([C@@H](CC(C)C)N4C(=O)c5ccccc5C4=O)nc4ccccc43)nn2)cc1 [Compound 6e] | –
NDR | NDR | – | – | 211 to 213 | CC[C@@H](C)[C@H](c1nc2ccccc2n1Cc1cn(-c2ccccc2)nn1)N1C(=O)c2ccccc2C1=O [Compound 6f] | –
NDR | NDR | – | – | 194 to 196 | CC[C@@H](C)[C@H](c1nc2ccccc2n1Cc1cn(-c2ccc(Cl)cc2)nn1)N1C(=O)c2ccccc2C1=O [Compound 6g] | –
– | – | 40 | 22.5 | 135 to 137 | CC[C@@H](C)[C@H](c1nc2ccccc2n1Cc1cn(-c2ccc(OC)cc2)nn1)N1C(=O)c2ccccc2C1=O [Compound 6i] | –
– | – | 73 | 33.4 | 198 to 201 | CC[C@@H](C)[C@H](c1nc2ccccc2n1Cc1cn(-c2ccc(C)cc2)nn1)N1C(=O)c2ccccc2C1=O [Compound 6j] | –
– | – | 30.9 | 16 | 221 to 223 | CC(C)[C@H](c1nc2ccccc2n1Cc1cn(-c2ccccc2)nn1)N1C(=O)c2ccccc2C1=O [Compound 6k] | –
NDR | NDR | – | – | 182 to 184 | CC(C)[C@H](c1nc2ccccc2n1Cc1cn(-c2ccc(Cl)cc2)nn1)N1C(=O)c2ccccc2C1=O [Compound 6l] | –
– | – | 9.6 | 5.5 | 125 to 127 | COc1ccc(-n2cc(Cn3c([C@@H](C(C)C)N4C(=O)c5ccccc5C4=O)nc4ccccc43)nn2)cc1 [Compound 6n] | –
– | – | 23.5 | 17.5 | 169 to 171 | Cc1ccc(-n2cc(Cn3c([C@@H](C(C)C)N4C(=O)c5ccccc5C4=O)nc4ccccc43)nn2)cc1 [Compound 6o] | –
– | – | 62 | 31 | 147 to 149 | CCOC(=O)Cn1cc(Cn2c([C@@H](CC(C)C)N3C(=O)c4ccccc4C3=O)nc3ccccc32)nn1 [Compound 6p] | –
– | – | 8.4 | 4.1 | – | CC(C)C[C@H](c1nc2ccccc2n1Cc1cn(CC(=O)O)nn1)N1C(=O)c2ccccc2C1=O [Compound 6q] | –
– | – | 28 | 14 | 146 to 148 | CCCCCCn1cc(Cn2c([C@@H](CC(C)C)N3C(=O)c4ccccc4C3=O)nc3ccccc32)nn1 [Compound 6t] | –
No IC50 | No IC50 | – | – | – | CCOC(=O)Cn1cc(Cn2c([C@@H]([C@H](C)CC)N3C(=O)c4ccccc4C3=O)nc3ccccc32)nn1 [Compound 6v] | –
– | – | 15.6 | 11.6 | – | CC[C@@H](C)[C@H](c1nc2ccccc2n1Cc1cn(CC(=O)O)nn1)N1C(=O)c2ccccc2C1=O [Compound 6w] | –
No IC50 | No IC50 | – | – | – | CC[C@@H](C)[C@H](c1nc2ccccc2n1Cc1c[nH]nn1)N1C(=O)c2ccccc2C1=O [Compound 6z] | –

Continued, molecule first:

SMILES | IC50 (SE) µM [1, 2] | IC50 (SE) µg/mL [1, 2] | IC50 [1, 3] [µM] | IC50 [1, 4] [µg/mL] | melting point [°C] | further results
CCOC(=O)Cn1cc(Cn2c([C@@H](C(C)C)N3C(=O)c4ccccc4C3=O)nc3ccccc32)nn1 [6a′] | No IC50 | No IC50 | – | – | – | –
CC(C)[C@H](c1nc2ccccc2n1Cc1cn(CC(=O)O)nn1)N1C(=O)c2ccccc2C1=O [6b′] | – | – | 7.2 | 3.8 | – | –
CC(C)[C@H](c1nc2ccccc2n1Cc1cn(C2O[C@@H](CO)C(O)[C@@H](O)[C@@H]2O)nn1)N1C(=O)c2ccccc2C1=O (stereo partly shown) [6d′] | – | – | 48.3 | 20 | – | –
CCCCCCn1cc(Cn2c([C@@H](C(C)C)N3C(=O)c4ccccc4C3=O)nc3ccccc32)nn1 [6e′] | – | – | 16.7 | 6.9 | – | –
C[C@@H]1CC[C@H]2[C@@H](C)C(=O)O[C@@H]3O[C@@]4(C)CC[C@@H]1[C@]32OO4 [Artemisinin, reference compound] | – | – | – | – | – | median survival time (MST) (P. berghei NK65): 21.5 days
CCN(CC)CCCC(C)Nc1ccnc2cc(Cl)ccc12 (stereo not shown) [CQ, chloroquine, reference compound] | – | – | – | – | – | IC50 ([1]; 3D7, read-out: IC50 (SE) µM): 0.03 µM; IC50 ([1]; 3D7, read-out: IC50 (SE) µg/mL): 0.015 µg/mL
C[C@H]1[C@@H](O)O[C@@H]2O[C@@]3(C)CC[C@H]4[C@H](C)CC[C@@H]1[C@@]24OO3 [DHA, dihydroartemisinin, reference compound] | – | – | 0.003 | 0.0017 | – | –
O=C1NC(=O)c2ccccc21 [I, Phthalimide, reference compound] | – | – | 5.14 | 0.8 | – | –
